Here are results for three compounds from patent KR20110010755A, “결정질 2-((2s,3r,4e,6e,10e,12s)-13-(4-플루오로페녹시)-2,3,12-(트리히드록시트리데카-4,6,10-트리엔-8-이닐)옥시)아세트산의 무수물 및 수화물 형태” (바이엘 쉐링 파마 악티엔게젤샤프트, priority 2008, dated 2009).

Series [1] concerns human neutrophils [인간 호중구]. The note with it: through human endothelial cells and epithelial cells, e.g. human intestinal epithelial cell line T84; literature; cited from earlier work.
Series [2] is described as follows: Relative chemical stability of polymorph I over 4 weeks under storage (HPLC purity). The note with it: for HPLC purity: week 0; for HPLC purity at 336 h / HPLC purity at 672 h: solid storage; for HPLC purity at 336 h: week 2; for HPLC purity at 672 h: week 4. It is filed as physicochemical.
Series [3] is described as follows: Hygroscopicity: water sorption/desorption in an automated water sorption analyser, 25 ℃. It is filed as physicochemical.

Molecules are shown by their SMILES.

For the compound `CCCCC[C@H](O)/C=C/C=C\C=C\C=C\[C@@H](O)[C@@H](O)CCCC(=O)O` [리폭신 A4], in series [1], the “inhibition of transmigration of human neutrophils” value is on record as “억제한다”.

Consider `O=C(O)COC[C@H](O)[C@H](O)/C=C/C=C/C#C/C=C/[C@H](O)COc1ccc(F)cc1` [다형체 I, 2-((2S,3R,4E,6E,10E,12S)-13-(4-플루오로페녹시)-2,3,12-트리히드록시트리데카-4,6,10-트리엔-8-이닐옥시)아세트산], for which the HPLC purity in series [2] (25 ℃, dry) came out at 97.36%; in series [2] (25 ℃/60%RH) it was 97.36%; in series [2] (40 ℃, dry), 97.36%; in series [2] (40 ℃/75%RH) it was 97.36%. Further, the HPLC purity at 336 h in series [2] (25 ℃, dry) came to 97.5%; in series [2] (25 ℃/60%RH) it was 97.5%; in series [2] (40 ℃, dry) it was 96.9%; in series [2] (40 ℃/75%RH), 95.9%. For the same compound, the HPLC purity at 672 h in series [2] (25 ℃, dry) amounted to 97.5%; in series [2] (25 ℃/60%RH), 97.7%; in series [2] (40 ℃, dry), 96.4%; in series [2] (40 ℃/75%RH), 92.5%. Further, the moisture adsorbed in series [3] (80% relative humidity, corresponds to the dihydrate of the substance) is about 8%. Moreover, the hygroscopicity result in series [3] (in words) is on record as “흡습성”. In addition, the reversibility of hydration entry in series [3] (in words) is “가역적”. Also, the “relative humidity at which polymorph I transforms into the hydrate” value in series [3] (relative humidity) is reported as over 60%.

Regarding `O=C(O)COC[C@H](O)[C@H](O)/C=C/C=C/C#C/C=C/[C@H](O)COc1ccc(F)cc1` [수화물, 2-((2S,3R,4E,6E,10E,12S)-13-(4-플루오로페녹시)-2,3,12-트리히드록시트리데카-4,6,10-트리엔-8-이닐옥시)아세트산], in series [3] (relative humidity, reversal of hydration), the “relative humidity at which transformation into polymorph I is observed” value is on record as under 40%.
